Data as given in EP1633374B1, “COMPOSITION CONSISTING OF ALKANE DICARBOXYLIC ACIDS AND A PHARMACEUTICALLY ACTIVE INGREDIENT” (Intendis GmbH, priority 2003, dated 2004).
“Also recorded” adds a separate entry of the source.

Tested on: durch Crotonöl entzündete Maushaut
Experiment: Croton oil-induced inflammation of the mouse ear (irritant contact dermatitis model), leukocyte infiltration of the skin
Assay type: in vivo, Maus
Conditions: for Inhibition [%] der Hautinfiltration * von Granulozyten & Monozyten (Myelo-Peroxidaseaktivität) / Inhibition [%] der Hautinfiltration * von Neutrophilen Elastaseaktivität: Crotonöl challenge, mouse ear skin, topical treatment in Ethanol/Isopropylmyristat, inhibition vs Crotonöl + Vehikel (0 %), 100 % = Vehikel/Vehikel, significance given (n.s. or p<0.05); for therapeutische Effekte im Vergleich zum Vehikel: inflammation model, in Ethanol/Isopropylmyristat, Peroxidase- and Elastase-Aktivität in der Haut, result in words
Text: Die Induktion einer entzündlichen Reaktion (irritative Kontaktdermatitis) ist ein weit verbreitetes Modell zur pharmakologischen Evaluierung des anti - inflammatorischen Potentials von topisch oder systemisch applizierten Testsubstanzen. (Trancik and Lowe (1985) Evaluation of topical nonsteroidal anti - inflammatory agents, Models in Dermatology, H. Maibach and N.J. Lowe, Basel Karger: 35 - 42) Es hat sich unter anderem bei der Testung von nicht - steroidalen Antiphlogistika sowie bei Glukokortikosteroiden bewährt und gilt als der am besten reproduzierbare in vivo Testversuch für die Evaluierung topischer anti - inflammatorischer Substanzen (Lorenzetti (1975) Animal to Clinical Correlation of Topical Anti - Inflammatory Efficacy, Animal models in dermatology. H. Maibach, Basel Karger: 212 - 224)
Die Induktion einer entzündlichen Reaktion (irritative Kontaktdermatitis) ist ein weit verbreitetes Modell zur pharmakologischen Evaluierung des anti - inflammatorischen Potentials von topisch oder systemisch applizierten Testsubstanzen (Trancik and Lowe (1985) Evaluation of topical nonsteroidal anti - inflammatory agents, Models in Dermatology, H. Maibach and N.J. Lowe. Basel, Karger: 35 - 42). Es hat sich u.a. bei der Testung von nicht - steroidalen Antiphlogistika sowie bei Glukokortikosteroiden bewährt und gilt als der am besten reproduzierbare in vivo Versuch für die Evaluierung topischer anti - inflammatorischer Substanzen (Lorenzetti (1975) Animal to Clinical correlation of Topical Anti - inflammatory Efficacy. Animal models in dermatology. H. Maibach. Basel Karger: 212 - 225).
Die Applikation des Phorbolesters Crotonöl auf Mäuseohren führt zu einer akuten, entzündlichen Reaktion mit Ödem und Einwanderung von vorwiegend polymorphkernigen Granulozyten, die binnen 24h ihr Maximum erreicht. Testsubstanzen können hierbei entweder präventiv (d.h. vor Applikation des entzündlichen Reizes) oder simultan mit Crotonöl appliziert werden. Die Crotonöl - induzierte Entzündung am Mäuseohr ist nicht nur ein Modell der irritativen und/oder allergischen Kontaktdermatitis, sondern auch anderer Hauterkrankungen, die mit einer starken Entzündung und Einwanderung von Granulozyten verbunden sind. Hierzu zählen die Psoriasis, atopische Dermatitis, Akne vulgaris und das entzündliche Stadium der Rosacea.
Erstaunlicher Weise wurde gefunden, dass eine Kombinationstherapie von Metronidazol (0.75%) und Azelainsäure (20%) in Ethanol/Isopropylmyristat im Vergleich zum Vehikel signifikant therapeutisch effektiv waren, wohingegen die beiden Einzelsubstanzen Metronidazol (0.75%) bzw. […] Die Wirksamkeit beinhaltete u.a. die Einwanderung von Leukozyten gemessen als Peroxidase-Aktivität in der Haut sowie die Einwanderung von neutrophilen Granulozyten gemessen als Elastase-Aktivität in der Haut (Tabelle 1).
Die Leukozyteninfiltration in die durch Crotonöl entzündete Maushaut wird durch die kombinierte Behandlung mit Azelainsäure und Metronidazol im Vergleich zu Vehikelbehandlung signifikant inhibiert, wohingegen die einzelnen Wirkstoffe nicht so effektiv waren.

Compound | Inhibition [%] der Hautinfiltration * von Granulozyten & Monozyten (Myelo-Peroxidaseaktivität) | Inhibition [%] der Hautinfiltration * von Neutrophilen Elastaseaktivität | therapeutische Effekte im Vergleich zum Vehikel
C[C@H]1C[C@@H]2[C@H]([C@@H](O)C[C@@]3(C)[C@H]2CC[C@]3(O)C(=O)CO)[C@@]2(C)C=CC(=O)C=C12 [Methylprednisolon] | 90 (p<0.05) ^* % | 95 (p<0.05) ^* % | –
O=C(O)CCCCCCCC(=O)O [Azelainsäure (20%), Azelainsäure] | 21 (n.s.) * % | 11 (n.s.) * % | keine so hohen, therapeutischen Effekte; also recorded: keine so hohe, therapeutische Effekte
Cc1ncc([N+](=O)[O-])n1CCO [Metronidazol (0.75%), 1-(2-hydroxyethyl)-2-methyl-5-nitroimidazol] | 9 (n.s.) * % | 18 (n.s.) * % | keine so hohen, therapeutischen Effekte; also recorded: keine so hohe, therapeutische Effekte
